Converted amounts (≈) assume the structure as drawn. The source made the active and inactive calls. The calls are words filed in the database; no cut-off is given here.
How the values were obtained:
Pseudomonas putida = experiment: Antibacterial activity against Pseudomonas putida ATCC 12633 at <50 ug/ml measured every 1 hr; format: functional, organism-based
Bacillus subtilis = experiment: Antibacterial activity against Bacillus subtilis ATCC 23857 at <50 ug/ml measured every 1 hr; format: functional, organism-based
Saccharomyces cerevisiae = experiment: Antifungal activity against Saccharomyces cerevisiae assessed as growth inhibition measured every 4 hrs; format: functional
[1] = target: DNA topoisomerase 2-alpha (Homo sapiens, UniProt P11388); experiment: Inhibition of topoisomerase-2 (unknown origin)
[2] = Inhibition of DNA gyrase (unknown origin)-mediated DNA relaxation
[3] = Inhibition of DNA gyrase (unknown origin)-mediated DNA supercoiling

Sequence of DNA topoisomerase 2-alpha (P11388 whole entry): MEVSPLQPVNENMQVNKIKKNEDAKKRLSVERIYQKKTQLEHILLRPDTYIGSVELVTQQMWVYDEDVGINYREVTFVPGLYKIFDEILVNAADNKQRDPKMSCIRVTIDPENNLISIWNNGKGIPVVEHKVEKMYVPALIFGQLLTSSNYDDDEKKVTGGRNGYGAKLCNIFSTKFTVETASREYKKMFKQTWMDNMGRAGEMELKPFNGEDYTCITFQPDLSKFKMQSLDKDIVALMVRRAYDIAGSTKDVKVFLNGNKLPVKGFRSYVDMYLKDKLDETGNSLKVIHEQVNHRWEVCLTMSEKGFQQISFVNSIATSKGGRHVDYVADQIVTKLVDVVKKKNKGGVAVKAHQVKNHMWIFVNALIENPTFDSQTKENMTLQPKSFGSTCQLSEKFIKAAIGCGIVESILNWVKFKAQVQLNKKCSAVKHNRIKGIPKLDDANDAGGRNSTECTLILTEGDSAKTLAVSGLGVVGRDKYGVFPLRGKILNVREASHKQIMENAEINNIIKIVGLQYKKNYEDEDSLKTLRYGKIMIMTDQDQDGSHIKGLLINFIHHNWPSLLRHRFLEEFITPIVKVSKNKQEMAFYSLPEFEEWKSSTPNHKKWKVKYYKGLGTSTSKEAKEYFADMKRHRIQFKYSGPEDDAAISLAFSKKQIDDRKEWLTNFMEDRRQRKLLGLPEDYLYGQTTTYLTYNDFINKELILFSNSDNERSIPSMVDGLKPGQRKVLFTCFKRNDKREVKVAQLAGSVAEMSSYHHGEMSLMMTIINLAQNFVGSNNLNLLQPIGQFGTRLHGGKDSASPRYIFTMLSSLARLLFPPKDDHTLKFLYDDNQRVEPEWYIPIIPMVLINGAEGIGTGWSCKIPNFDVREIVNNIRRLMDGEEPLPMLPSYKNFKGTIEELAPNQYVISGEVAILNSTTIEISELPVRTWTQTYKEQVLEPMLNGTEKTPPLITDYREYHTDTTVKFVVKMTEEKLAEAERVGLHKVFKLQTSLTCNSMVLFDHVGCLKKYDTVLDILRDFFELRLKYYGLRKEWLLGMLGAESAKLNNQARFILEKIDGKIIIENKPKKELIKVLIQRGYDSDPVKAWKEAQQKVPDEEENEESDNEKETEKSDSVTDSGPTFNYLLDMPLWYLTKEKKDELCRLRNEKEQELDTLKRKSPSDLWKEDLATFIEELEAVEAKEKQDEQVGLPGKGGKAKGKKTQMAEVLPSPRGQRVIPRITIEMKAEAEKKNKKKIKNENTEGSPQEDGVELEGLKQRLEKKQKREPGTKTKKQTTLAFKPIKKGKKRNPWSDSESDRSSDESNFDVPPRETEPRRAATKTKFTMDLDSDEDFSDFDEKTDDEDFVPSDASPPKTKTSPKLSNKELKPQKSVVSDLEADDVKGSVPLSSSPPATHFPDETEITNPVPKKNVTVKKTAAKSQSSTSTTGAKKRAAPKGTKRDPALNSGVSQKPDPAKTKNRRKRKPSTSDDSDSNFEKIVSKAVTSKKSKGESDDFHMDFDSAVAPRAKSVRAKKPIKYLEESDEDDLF

| Molecule | Activity (Pseudomonas putida) | Activity (Bacillus subtilis) | MIC (Saccharomyces cerevisiae) [mg/L] | IC50 [1] [µM] | IC50 [2] [mg/L] | IC50 [3] [mg/L] |
| --- | --- | --- | --- | --- | --- | --- |
| Cc1c(O)cc(C[C@@H](O)CCCCCCCO)oc1=O | inactive | inactive | – | – | – | – |
| C[C@@H](O)CCCCC[C@H]1Cc2cc(O)c(C(=O)O)c(O)c2[C@@H](O)O1 | inactive | inactive | 100 (≈ 294 µM) | – | – | – |
| NYSTATIN | – | – | < 5 | – | – | – |
| Cc1c(O)cc(C[C@@H](O)C[C@H](O)CCCCCCCO)oc1=O | inactive | inactive | – | – | – | – |
| CCCCCCC[C@H]1Cc2cc(O)c(C(=O)O)c(O)c2[C@@H](O)O1 | – | – | – | 3.08 | 9 (≈ 27.7 µM) | 6 (≈ 18.5 µM) |
| CCCCCCC[C@@H](O)C[C@H](O)Cc1cc(O)c(C)c(=O)o1 | inactive | inactive | – | – | – | – |
| O=C(O)c1c(O)cc2c(c1O)CO[C@@H](CCCCCCCO)C2 | inactive | inactive | 100 (≈ 308 µM) | – | – | – |
| C[C@@H](O)CCCCC[C@H]1Cc2cc(O)c(C(=O)O)c(O)c2CO1 | inactive | inactive | 100 (≈ 308 µM) | – | – | – |
| O=C(O)c1c(O)cc2c(c1O)[C@@H](O)O[C@@H](CCCCCCCO)C2 | inactive | inactive | 100 (≈ 294 µM) | – | – | – |

Source: ChEMBL document CHEMBL3108777, “Isochromans and α-pyrones from Penicillium corylophilum” (J Nat Prod, 2014)
